What was measured:
[1] = Hydrogen sulfide selectivity test: decomplexation by NaCl; format: physicochemical; conditions: 100 μM or NaCl (10 mm), 37° C. for 15 minutes
Method: (§1) In addition to hydrogen sulfide, many different anions, radicals, etc. exist in the body. Therefore, to examine selective reactivity of the ^64Cu-labeled complex compound according to the present disclosure for sulfide ions, the following experiment was performed.
(§2) About 45 μCi-55 μCi of the ^64Cu-labeled complex compound (250 μL of triple distilled water) was mixed with 100 μM of various anion solutions (250 μL of triple distilled water) including biothiol, and stirred at 37° C. for 15 minutes.
(§3) Formation of copper sulfide (^64CuS) was quantified by using a radio-TLC scanner.
(§4) Various biothiol or salt solutions were prepared by dissolving the compounds in triple distilled water.
(§5) In Table, concentrations of all biothiols and other competitive materials are 100 μM. Further, specific concentrations of biothiols, anions, and oxidants used in Table are as follows: [L-Cys (1 mM); L-Hcys (10 mM); GSH (10 mM); DL-dithiothretitol (DTT, 100 μM); L-ascorbic acid (L-AsA, 10 mM); 2-mercaptoethanol (2-ME, 10 mM); NaCl (10 mm); KI (1 mM); Na2S2O3 (1 mM); Na2S2O5 (1 mM); NaOAc (1 mM); H2O2 ([…]); NaClO4 (100 μM); NaHCO3 (100 μM); NaNO2 ([…]); NaN3 (100 μM); ATB 337 (100 μM); diallyl trisulphide (100 μM)].

[2] = Hydrogen sulfide selectivity test: decomplexation by Na2S2O3; format: physicochemical; conditions: 100 μM or (1 mM), 37° C. for 15 minutes
Method: as §1, §2, §3, §4, §5

[3] = Hydrogen sulfide selectivity test: decomplexation by NaOAc; format: physicochemical; conditions: 100 μM or (1 mM), 37° C. for 15 minutes
Method: as §1, §2, §3, §4, §5

[4] = Hydrogen sulfide selectivity test: decomplexation by Hcys; format: physicochemical; conditions: 100 μM or L-Hcys (10 mM), 37° C. for 15 minutes
Method: as §1, §2, §3, §4, §5

[5] = Hydrogen sulfide selectivity test: decomplexation by H2O2; format: physicochemical; conditions: H2O2 (100 µM); 37° C. for 15 minutes
Method: as §1, §2, §3, §4, §5

[6] = Hydrogen sulfide selectivity test: decomplexation by Cys; format: physicochemical; conditions: 100 μM or L-Cys (1 mM), 37° C. for 15 minutes
Method: as §1, §2, §3, §4, §5

[7] = Hydrogen sulfide selectivity test: decomplexation by NaN3; format: physicochemical; conditions: NaN3 (100 μM); 37° C. for 15 minutes
Method: as §1, §2, §3, §4, §5

[8] = Hydrogen sulfide selectivity test: decomplexation by Kl; format: physicochemical; conditions: 100 μM or KI (1 mM), 37° C. for 15 minutes
Method: as §1, §2, §3, §4, §5

[9] = Hydrogen sulfide selectivity test: decomplexation by ATB 337; format: physicochemical; conditions: ATB 337 (100 μM); 37° C. for 15 minutes
Method: as §1, §2, §3, §4, §5

[10] = Test of hydrogen sulfide detection sensitivity (% decomplexation with NaHS, radio-TLC); format: physicochemical; conditions: for % decomplexation against 100 μM NaHS solution: Table 3; for % decomplexation: 37° C. for 15 minutes
Method: To measure hydrogen sulfide detection sensitivity of the ^64Cu-labeled complex compound according to the present disclosure, the following experiment was performed.
About 45 μCi-55 μCi of ^64Cu-labeled complex compound (250 μL of triple distilled water) was mixed with various concentrations of NaHS solution (250 µL of triple distilled water), and stirred at 37° C. for 15 minutes (a total volume used in the reaction was equally 500 μL). After completion of the reaction, the resulting products were strongly stirred to mix appropriately.
Formation of copper sulfide (^64CuS) was confirmed by quantification of % decomplexation by using a radio-TLC scanner, and results are shown in the following Tables 2 and 3.

[11] = Hydrogen sulfide selectivity test: decomplexation by GSH; format: physicochemical; conditions: 100 μM or GSH (10 mM), 37° C. for 15 minutes
Method: as §1, §2, §3, §4, §5

[12] = Hydrogen sulfide selectivity test: decomplexation by L-AsA; format: physicochemical; conditions: L-ascorbic acid; 100 μM or (L-AsA, 10 mM); 37° C. for 15 minutes
Method: as §1, §2, §3, §4, §5

[13] = Hydrogen sulfide selectivity test: decomplexation by NaNO2; format: physicochemical; conditions: NaNO2 (100 µM); 37° C. for 15 minutes
Method: as §1, §2, §3, §4, §5

[14] = Hydrogen sulfide selectivity test: decomplexation by NaClO4; format: physicochemical; conditions: NaClO4 (100 μM); 37° C. for 15 minutes
Method: as §1, §2, §3, §4, §5

[15] = Hydrogen sulfide selectivity test: decomplexation by DTT; format: physicochemical; conditions: DL-dithiothretitol (DTT, 100 μM); 37° C. for 15 minutes
Method: as §1, §2, §3, §4, §5

[16] = Hydrogen sulfide selectivity test: decomplexation by NaHCO3; format: physicochemical; conditions: NaHCO3 (100 μM); 37° C. for 15 minutes
Method: as §1, §2, §3, §4, §5

[17] = Hydrogen sulfide selectivity test: decomplexation by Na2S2O5; format: physicochemical; conditions: 100 μM or (1 mM), 37° C. for 15 minutes
Method: as §1, §2, §3, §4, §5

[18] = Hydrogen sulfide selectivity test: decomplexation by DAT (diallyl trisulphide); format: physicochemical; conditions: DAT = diallyl trisulphide (100 μM); 37° C. for 15 minutes
Method: as §1, §2, §3, §4, §5

[19] = Hydrogen sulfide selectivity test: decomplexation by ME; format: physicochemical; conditions: 2-mercaptoethanol; 100 μM or (2-ME, 10 mM); 37° C. for 15 minutes
Method: as §1, §2, §3, §4, §5

[20] = system: Myocardial infarction model; experiment: Imaging study in myocardial infarction model (PET); format: in vivo, Sprague-Dawley rats; conditions: PET imaging after injection
Excerpt: (2) Myocardial Infarction Model
A myocardial infarction model was established by using Sprague-Dawley rats (12-week-old or older, about 250 g). 2 days later after induction of myocardial infarction by occlusion of the coronary arteries in the heart, the rats were used in imaging tests. It is a known fact that myocardial infarction sites show high concentrations of hydrogen sulfide.
It is known that myocardial infarction sites show high concentrations of hydrogen sulfide. Thus, after induction of myocardial infarction by coronary artery occlusion in rats, 50 μCi-900 μCi of the ^64Cu-labeled complex compound was injected via the tails of the rats, and uptake in the myocardial infarction site was examined over time by PET imaging.
36 hours after establishment of the myocardial infarction model, 730 μCi of the radioisotope-labeled complex compound of the present disclosure was injected and nuclear medicine imaging was performed. 2 days later, […] of FDG was injected into the same rat, and then FDG-PET images were obtained. Results are shown in FIGS. 15 to 17 (in the nuclear medicine imaging, the upper image represents a transverse image, and the lower image represents a coronal image).

[21] = Test of hydrogen sulfide detection over time (^64CuS formation, radio-TLC); format: physicochemical; set-up: unit not given here; conditions: 100 μM NaHS, 37° C.
Method: To examine reactivity of the ^64Cu-labeled complex compound according to the present disclosure over time, the following experiment was performed.
A detailed experimental method is as follows.
About 45 μCi-50 μCi of ^64Cu-labeled complex compound (250 μL of triple distilled water) was mixed with 100 μM of NaHS solution ([…] of triple distilled water), and stirred at 37° C. for 15 minutes. Formation of copper sulfide (^64CuS) was quantified by using a radio-TLC scanner.

[22] = system: Paw inflammation model; format: in vivo, Balb/c or ICR mice
Method: (1) Paw Pain Inflammation Model
A small amount of CFA (complete Freund's adjuvant) or formalin was injected into only one paw (right) of the hind paws of Balb/c or ICR mice to establish inflammation models. 1 day after injection of the inflammation inducer, the mice were used in imaging or other in vivo experiments.
It is a known fact that inflamed sites show high concentrations of hydrogen sulfide.
Nuclear medicine imaging was measured by using an Inveon PET/CT system of Siemens Healthcare, and optical imaging was measured by using IVIS spectrum CT equipment. Cherenkov radiation emitted from ^64Cu was measured by using a highly sensitive CCD (charge-coupled device) camera.
Imaging was measured for 1 minute to 5 minutes, and a radiation dose was about 50 μCi to 2000 μCi, and photographs were variously taken as needed, such as immediately after first injection, at 1 hour, 4 hours, and 24 hours later.

C1C[SH]2CC[SH]3CC[SH]4CC[N]1[64Cu]243 (stereo not shown) [Example 23]
Decomplexation [%] [1]: 0.5%
Decomplexation [%] [2]: 0.2%
Decomplexation [%] [3]: 0.3%
Decomplexation [%] [4]: 0.4%
Decomplexation [%] [5]: 0.3%
Decomplexation [%] [6]: 0.5%
Decomplexation [%] [7]: 0.8%
Decomplexation [%] [8]: 0.2%
Decomplexation [%] [9]: 0.6%
% decomplexation against 100 μM NaHS solution [10]: 78.3 ± 2.6%
% decomplexation ([10]; NaHS 0 μM): 0%
% decomplexation ([10]; NaHS 1 μM): 0%
% decomplexation ([10]; NaHS 10 μM): 0%
% decomplexation ([10]; NaHS 15 μM): 36.4%
% decomplexation ([10]; NaHS 20 μM): 49.4%
% decomplexation ([10]; NaHS 50 μM): 67.7%
% decomplexation ([10]; NaHS 100 μM): 78.2%
Decomplexation [%] [11]: 0.7%
Decomplexation [%] [12]: 0.4%
Decomplexation [%] [13]: 0.6%
Decomplexation [%] [14]: 0.8%
Decomplexation [%] [15]: 0.4%
Decomplexation [%] [16]: 0.1%
Decomplexation [%] [17]: 0.6%
Decomplexation [%] [18]: 0.4%
Decomplexation [%] [19]: 0.5%

OC[C@H]1O[C@@H](O)[C@H]([18F])[C@@H](O)[C@@H]1O [FDG, reference compound]
uptake / visualisation of the myocardial infarction site [20]: uptake did not occur in the myocardial infarction site

CN1CCCNCCNCCNCC1.[64Cu+2] [Example 24]
% decomplexation against 100 μM NaHS solution [10]: 0%

[64Cu+2].c1ccc2c(CN3CCNCCNCCNCC3)c3ccccc3cc2c1 [Example 2]
Formation of copper sulfide (^64CuS) over time ([21]; 10 sec): 21
Formation of copper sulfide (^64CuS) over time ([21]; 30 sec): 22
Formation of copper sulfide (^64CuS) over time ([21]; 60 sec): 33
Formation of copper sulfide (^64CuS) over time ([21]; 5 min): 82
Formation of copper sulfide (^64CuS) over time ([21]; 10 min): 100
Formation of copper sulfide (^64CuS) over time ([21]; 15 min): 100
% decomplexation ([10]; NaHS 0 μM): 0%
% decomplexation ([10]; NaHS 1 μM): 0%
% decomplexation ([10]; NaHS 10 μM): 0%
% decomplexation ([10]; NaHS 15 μM): 0%
% decomplexation ([10]; NaHS 20 μM): 15%
% decomplexation ([10]; NaHS 50 μM): 56%
% decomplexation ([10]; NaHS 100 μM): 100%
selective uptake in inflamed sites ([22]; optical imaging and nuclear medicine imaging): selective uptake

CC1CC[N]2C3CCCCC3[N]3C(C)CC[N]4C5CCCCC5[N]1[64Cu]423 (stereo not shown) [Example 9]
uptake in inflamed paw versus opposite paw ([22]; optical and nuclear medicine imaging performed 2 hours later): higher uptakes

C1C[N]2CC[N]3CC[N]4CC[N](C1)[64Cu]234 [Example 16, ^64Cu-labeled cyclam]
Decomplexation [%] [1]: 0.7 ± 0.0%
Decomplexation [%] [2]: 0.8 ± 0.1%
Decomplexation [%] [3]: 0.8 ± 0.0%
Decomplexation [%] [4]: 0.7 ± 0.0%
Decomplexation [%] [5]: 0.7 ± 0.2%
Decomplexation [%] [6]: 0.7 ± 0.2%
Decomplexation [%] [7]: 0.7 ± 0.1%
Decomplexation [%] [8]: 0.7 ± 0.0%
Formation of copper sulfide (^64CuS) over time ([21]; 10 sec): 0
Formation of copper sulfide (^64CuS) over time ([21]; 30 sec): 0
Formation of copper sulfide (^64CuS) over time ([21]; 60 sec): 0
Formation of copper sulfide (^64CuS) over time ([21]; 5 min): 3
Formation of copper sulfide (^64CuS) over time ([21]; 10 min): 5
Formation of copper sulfide (^64CuS) over time ([21]; 15 min): 10
uptake / visualisation of the myocardial infarction site [20]: no specific uptake was observed in the heart
Decomplexation [%] [9]: 0.6 ± 0.0%
% decomplexation ([10]; NaHS 0 μM): 0%
% decomplexation ([10]; NaHS 1 μM): 0%
% decomplexation ([10]; NaHS 10 μM): 0%
% decomplexation ([10]; NaHS 15 μM): 0%
% decomplexation ([10]; NaHS 20 μM): 0%
% decomplexation ([10]; NaHS 50 μM): 1.3%
% decomplexation ([10]; NaHS 100 μM): 10.5%
Decomplexation [%] [11]: 0.8 ± 0.2%
Decomplexation [%] [12]: 0.7 ± 0.2%
Decomplexation [%] [13]: 0.5 ± 0.1%
Decomplexation [%] [14]: 0.6 ± 0.1%
Decomplexation [%] [15]: 0.8 ± 0.0%
Decomplexation [%] [16]: 0.5 ± 0.1%
difference between inflamed and normal paws ([22]; mouse, in vivo): no obvious difference in the inflamed and normal paws
uptake compared to injection of the same quantity of ^64Cu-labeled cyclen of Example 1 ([22]; mouse, in vivo): low uptake
Decomplexation [%] [17]: 0.5 ± 0.0%
Decomplexation [%] [19]: 0.5 ± 0.6%

c1ccc(CNCc2ccccn2)nc1 [Example 33]
% decomplexation against 100 μM NaHS solution [10]: 26.6%

C1CNCCN2CCCNCCN(C1)CCC2 [Example 25]
% decomplexation against 100 μM NaHS solution [10]: 0%

C/C(=N\O)[C@@H](C)NCC(C)(C)CN[C@H](C)/C(C)=N/O [Example 26]
% decomplexation against 100 μM NaHS solution [10]: 62.43 ± 0.87%
